# Laboratory results: patent US7915276B2, “Berberrubine derivatives having antifungal activities” (priority 2006, dated 2011)
# Columns and labels:
# [1] = biological target: T1, chitin synthase 1 of Candida albicans chs2 Δ chs 3 Δ (Candida albicans, UniProt P23316); assay: In vitro enzyme assay for chitin synthase 1 of Candida albicans (enzyme 1); format: biochemical; details: relative to polyoxin D (50% inhibitory activity = value 5)
# T1 construct: Crude enzyme was prepared using the Candida albicans chs2 Δ chs 3 Δ mutant; endogenous in cells; host or cells: Candida albicans chs2Δ/chs2Δ chs3Δ/chs3Δ mutant; 130,000 x g membrane pellet
# T1 sequence (P23316 whole entry, stated change not applied): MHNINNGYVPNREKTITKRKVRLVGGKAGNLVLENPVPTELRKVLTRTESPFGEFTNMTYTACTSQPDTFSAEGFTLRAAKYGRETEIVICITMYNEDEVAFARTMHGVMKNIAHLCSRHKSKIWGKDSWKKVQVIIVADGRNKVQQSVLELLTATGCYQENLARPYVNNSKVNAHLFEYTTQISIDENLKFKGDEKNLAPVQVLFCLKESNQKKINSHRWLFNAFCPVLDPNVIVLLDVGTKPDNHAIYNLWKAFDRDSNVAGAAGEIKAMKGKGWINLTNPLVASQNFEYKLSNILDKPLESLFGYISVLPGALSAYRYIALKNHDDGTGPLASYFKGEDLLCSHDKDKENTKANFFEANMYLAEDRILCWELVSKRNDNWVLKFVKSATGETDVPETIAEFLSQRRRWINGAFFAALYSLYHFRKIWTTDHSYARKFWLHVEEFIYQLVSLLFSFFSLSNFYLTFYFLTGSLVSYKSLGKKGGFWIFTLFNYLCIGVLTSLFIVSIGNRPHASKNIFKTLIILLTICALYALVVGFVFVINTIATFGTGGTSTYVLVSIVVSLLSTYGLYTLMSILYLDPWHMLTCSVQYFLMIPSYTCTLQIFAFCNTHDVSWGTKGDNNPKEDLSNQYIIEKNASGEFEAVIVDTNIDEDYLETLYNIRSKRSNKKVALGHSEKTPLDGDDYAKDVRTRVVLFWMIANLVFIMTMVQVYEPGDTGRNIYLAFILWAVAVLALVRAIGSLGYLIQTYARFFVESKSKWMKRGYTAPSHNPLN
# Procedure, shortened: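 Crude membrane enzyme from the C. albicans chs2Δ chs3Δ strain was trypsin-activated for 15 min at 30 °C. Reaction: 32 mM Tris-HCl pH 7.5, 2 mM cobalt acetate, 1.1 mM UDP-[14C]GlcNAc, 90 min at 30 °C; TCA-insoluble radioactivity counted. Scored 1–8 by relative polyoxin D concentration (5 = equal).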
# human pathogenic fungi = assay: Antifungal activity against human pathogenic fungi (summary statements); format: cell-based
# Description: Candida albicans ATCC 10231, Candida lusitaniae ATCC 42720, Candida krusei ATCC 6258, Candida tropicalis ATCC 13803, Candida glabrata ATCC 48435, Candida parapsilosis ATCC 34136, Cryptococcus neoformans ATCC 36556, Aspergillus fumigatus ATCC 16424, Aspergillus flavus ATCC 64025, Aspergillus terreus ATCC 46941 and Mucor ramosissimus ATCC 90286 strains for the MIC (minimum inhibitory concentration) measurement were obtained from ATCC (American Type Culture Collection) in the U.S. The Candida albicans A207(clinical isolate) strain was used by isolating it from the patients.
# The determination of MIC was performed according to the NCCLS (National Committee for Clinical Laboratory Standard) method. Each test sample solution was diluted two-fold and inoculated with a fungal suspension to reach a final inoculum size of 5×10^2 to 2.5×10^3 cell/mL. The Cryptococcus neoformans strain was cultured in the RPMI 1640 medium for 72 hours. Other strains were cultured for 48 hours.
# chitin synthases = assay: Inhibitory activity against the chitin synthases (summary statements); format: biochemical
# Description: The inhibitory activities against the chitin synthase 1 of Candida albicans chs2 Δ chs 3 Δ (abbreviated as ‘enzyme 1’) and the chitin synthase 2 of Saccharomyces cerevisiae ECY38-38A(pAS6)(abbreviated as ‘enzyme 2’) was examined for compound Nos. 1 to 70 compound and polyoxin D, a positive control compound.
# The inhibitory activity against the chitin synthase 1 prepared from Candida albicans and the chitin synthase 2 prepared from Saccharomyces cerevisiae were examined as follows. A reaction mixture containing 32 mM Tris-HCl (pH 7.5), 2 mM cobalt acetate, 1.1 mM UDP-[U-^14C]-N-acetyl-d-glucosamine (GlcNAc) (400,000 cpm/μmol), 2 μL of trypsin (0.75 mg/mL), 20 μL of each crude enzyme and 14 μL of each test sample was kept at 30° C. for 15 minutes to activate the enzyme. Then, 2 μL of trypsin inhibitor (1.5 mg/mL) was added and the mixture was kept in an ice bath for 10 minutes to deactivate trypsin. 2 μL of 0.8 M N-acetyl-d-glucosamine was added to a total volume of 50 μL and reaction was performed at 30° C. for 90 minutes. The reaction was stopped using 1 mL of 10% TCA solution and the reaction solution was filtered with a GF/C filter and dried at room temperature. After adding 3 mL of a scintillation cocktail solution, the amount of isotopes was measured using a liquid scintillation counter. Percentage inhibition against each enzyme was calculated by the following Equation 1.
# [2] = biological target: T2, chitin synthase 2 of Saccharomyces cerevisiae ECY38-38A(pAS6) (Saccharomyces cerevisiae, UniProt P14180); assay: In vitro enzyme assay for chitin synthase 2 of Saccharomyces cerevisiae (enzyme 2); format: biochemical; details: relative to polyoxin D (50% inhibitory activity = value 5)
# T2 construct: made in house; host or cells: Saccharomyces cerevisiae ECY38-38A (chs1-23 chs2::LEU2 cal1/csd2) carrying plasmid pAS6, grown in galactose medium; 130,000 x g membrane pellet
# T2 sequence (P14180 whole entry): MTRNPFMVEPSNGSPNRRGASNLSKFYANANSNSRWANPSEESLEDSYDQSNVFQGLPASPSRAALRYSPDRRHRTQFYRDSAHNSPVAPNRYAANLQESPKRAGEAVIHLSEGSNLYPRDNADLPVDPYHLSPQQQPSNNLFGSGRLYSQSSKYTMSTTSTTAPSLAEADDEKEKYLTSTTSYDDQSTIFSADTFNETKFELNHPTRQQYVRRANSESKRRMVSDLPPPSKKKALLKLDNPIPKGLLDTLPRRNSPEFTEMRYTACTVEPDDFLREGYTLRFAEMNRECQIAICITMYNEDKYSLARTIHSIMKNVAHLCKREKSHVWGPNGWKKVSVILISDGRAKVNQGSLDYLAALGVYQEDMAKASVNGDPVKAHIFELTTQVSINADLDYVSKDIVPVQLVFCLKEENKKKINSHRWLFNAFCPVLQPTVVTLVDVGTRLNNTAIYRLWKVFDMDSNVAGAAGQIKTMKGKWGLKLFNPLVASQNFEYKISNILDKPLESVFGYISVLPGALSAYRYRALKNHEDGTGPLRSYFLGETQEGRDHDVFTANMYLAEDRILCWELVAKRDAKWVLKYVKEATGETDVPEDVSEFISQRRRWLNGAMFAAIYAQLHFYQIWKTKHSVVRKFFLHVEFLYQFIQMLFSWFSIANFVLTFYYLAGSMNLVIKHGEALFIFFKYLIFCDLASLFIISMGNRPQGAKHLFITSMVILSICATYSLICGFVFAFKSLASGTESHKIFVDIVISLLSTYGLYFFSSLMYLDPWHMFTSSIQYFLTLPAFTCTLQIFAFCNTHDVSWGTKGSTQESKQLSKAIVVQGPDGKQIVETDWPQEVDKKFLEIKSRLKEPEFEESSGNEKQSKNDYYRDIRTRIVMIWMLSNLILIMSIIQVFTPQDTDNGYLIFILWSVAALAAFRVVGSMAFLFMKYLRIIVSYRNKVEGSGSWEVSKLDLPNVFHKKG
# Procedure, shortened: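 Crude membrane chitin synthase 2 came from S. cerevisiae ECY38-38A(pAS6), expressing only CHS2, and was trypsin-activated (15 min, 30 °C) then trypsin-inhibited. The reaction ran in 32 mM Tris-HCl pH 7.5, 2 mM cobalt acetate, 1.1 mM UDP-[14C]-GlcNAc, 90 min at 30 °C. TCA-precipitated product was counted by scintillation; scores 1–8 reflect concentration relative to polyoxin D's 50% inhibition (score 5).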
# [3] = system: Cryptococcus neoformans ATCC 36556; assay: In vitro antifungal activity (MIC), NCCLS method; format: cell-based; details: 72 hours; for MIC (minimum inhibitory concentration): RPMI 1640 medium
# Procedure, shortened: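 Broth microdilution per NCCLS: two-fold serial dilutions of test compound inoculated with fungal suspension at a final 5×10^2 to 2.5×10^3 cell/mL. Strains other than Cryptococcus neoformans were incubated 48 hours before MIC reading.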
# [4] = system: Candida parapsilosis ATCC 34136; assay: In vitro antifungal activity (MIC), NCCLS method; format: cell-based
# Procedure, shortened: (§1)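 ATCC reference strains tested by NCCLS MIC method. Final inoculum 5×10^2 to 2.5×10^3 cell/mL over a two-fold dilution series; 48 h incubation.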
# [5] = system: Candida albicans A207 (clinical isolate); assay: In vitro antifungal activity (MIC), NCCLS method; format: cell-based; details: 48 hours
# Procedure, shortened: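 Two-fold dilutions, final inoculum 5×10^2–2.5×10^3 cell/mL, NCCLS protocol; 48 h culture for these strains. MIC = minimum inhibitory concentration.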
# [6] = system: Candida tropicalis ATCC 13803; assay: In vitro antifungal activity (MIC), NCCLS method; format: cell-based; details: for MIC (minimum inhibitory concentration): 48 hours
# Procedure, shortened: as §1
# [7] = system: Aspergillus fumigatus ATCC 16424; assay: In vitro antifungal activity (MIC), NCCLS method; format: cell-based; details: for MIC (minimum inhibitory concentration): 48 hours
# Procedure, shortened: (§2)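 Test samples were serially diluted two-fold, then inoculated with fungus to a final cell density of 5×10^2 to 2.5×10^3 cell/mL, following the NCCLS method. Plates were cultured for 48 hours and the minimum inhibitory concentration recorded.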
# [8] = system: Candida glabrata ATCC 48435; assay: In vitro antifungal activity (MIC), NCCLS method; format: cell-based
# Procedure, shortened: as §1
# [9] = system: Candida lusitaniae ATCC 42720; assay: In vitro antifungal activity (MIC), NCCLS method; format: cell-based; details: for MIC (minimum inhibitory concentration): 48 hours
# Procedure, shortened: as §1
# [10] = system: Mucor ramosissimus ATCC 90286; assay: In vitro antifungal activity (MIC), NCCLS method; format: cell-based; details: for MIC (minimum inhibitory concentration): 48 hours
# Procedure, shortened: as §1
# [11] = system: Aspergillus flavus ATCC 64025; assay: In vitro antifungal activity (MIC), NCCLS method; format: cell-based; details: for MIC (minimum inhibitory concentration): 48 hours
# Procedure, shortened: as §2
# [12] = system: Aspergillus terreus ATCC 46941; assay: In vitro antifungal activity (MIC), NCCLS method; format: cell-based; details: for MIC (minimum inhibitory concentration): 48 hours
# Procedure, shortened: as §2
# Candida krusei ATCC 6258 = assay: In vitro antifungal activity (MIC), NCCLS method; format: cell-based; details: for MIC (minimum inhibitory concentration): 48 hours
# Procedure, shortened: as §1
# [13] = system: Candida albicans ATCC 10231; assay: In vitro antifungal activity (MIC), NCCLS method; format: cell-based; details: for MIC (minimum inhibitory concentration): 48 hours
# Procedure, shortened: as §1
# [14] = Candida parapsilosis ATCC 34136, 48 hours
# [15] = Candida glabrata ATCC 48435, 48 hours
Compound,Relative activity Enzyme 1 [1],Relative activity Enzyme 2 [2],MIC (minimum inhibitory concentration) [3],"MIC (minimum inhibitory concentration) [4, 14]",MIC (minimum inhibitory concentration) [5],MIC (minimum inhibitory concentration) [6],MIC (minimum inhibitory concentration) [7],"MIC (minimum inhibitory concentration) [8, 15]",MIC (minimum inhibitory concentration) [9],MIC (minimum inhibitory concentration) [10],MIC (minimum inhibitory concentration) [11],MIC (minimum inhibitory concentration) [12],MIC (minimum inhibitory concentration) (Candida krusei ATCC 6258),MIC (minimum inhibitory concentration) [13],other results
13-(4-Isopropylbenzyl)-9-O-butylberberrubine iodide [Compound No. 18],"4 (Compounds having the inhibitory activity at 2-fold, 4-fold, 8-fold and 16-fold higher concentrations than that of polyoxin D were given the values of 4, 3, 2 and 1, respectively)","7 (compounds having the inhibitory activity at ½, ¼ and ⅛ lower concentrations than that of polyoxin D were given the values of 6, 7 and 8, respectively)",1 mg/L,4 mg/L,0.5 mg/L,0.25 mg/L,2 mg/L,4 mg/L,1 mg/L,4 mg/L,8 mg/L,8 mg/L,1 mg/L,0.5 mg/L,antifungal activities compared with amphotericin B (in words) (human pathogenic fungi): comparable to that of amphotericin B; inhibitory activities against the chitin synthases (in words) (chitin synthases): exceptionally superior inhibitory activities
13-(4-tert-Butylbenzyl)-9-O-octylberberrubine iodide [Compound No. 10],"3 (Compounds having the inhibitory activity at 2-fold, 4-fold, 8-fold and 16-fold higher concentrations than that of polyoxin D were given the values of 4, 3, 2 and 1, respectively)",5 (A compound having the same inhibitory activity as that of polyoxin D at the same concentration was given the value 5),1 mg/L,2 mg/L,0.25 mg/L,0.125 mg/L,2 mg/L,2 mg/L,0.5 mg/L,2 mg/L,4 mg/L,4 mg/L,1 mg/L,0.25 mg/L,–
"COc1ccc2c(Cc3ccc(C(C)(C)C)cc3)c3[n+](cc2c1OC)CCc1cc2c(cc1-3)OCO2.[Cl-] [Comparative compound 1, reference compound]","1 (Compounds having the inhibitory activity at 2-fold, 4-fold, 8-fold and 16-fold higher concentrations than that of polyoxin D were given the values of 4, 3, 2 and 1, respectively)","3 (Compounds having the inhibitory activity at 2-fold, 4-fold, 8-fold and 16-fold higher concentrations than that of polyoxin D were given the values of 4, 3, 2 and 1, respectively)",–,–,–,–,–,–,–,–,–,–,–,–,"MIC ([3]; ATCC36556, RPMI 1640 medium, read-out: MIC (minimum inhibitory concentration)): 8 mg/L; antifungal activities (in words) ([4]; Candida parapsilosis): no antifungal activities; MIC ([4]; Lodderomyces parapsilosis, ATCC34136, Candida parapsilosis ATCC 34136, 48 hours, read-out: MIC (minimum inhibitory concentration)): > 128 mg/L; MIC ([5]; read-out: MIC (minimum inhibitory concentration)): 8 mg/L; MIC ([6]; ATCC13803, 48 hours, read-out: MIC (minimum inhibitory concentration)): 2 mg/L; MIC ([7]; ATCC16424, 48 hours, read-out: MIC (minimum inhibitory concentration)): 128 mg/L; antifungal activities (in words) ([8]; Candida glabrata): no antifungal activities; MIC ([8]; Nakaseomyces glabratus, ATCC48435, Candida glabrata ATCC 48435, 48 hours, read-out: MIC (minimum inhibitory concentration)): > 128 mg/L; MIC ([9]; Clavispora lusitaniae, ATCC42720, 48 hours, read-out: MIC (minimum inhibitory concentration)): 8 mg/L; MIC ([10]; ATCC90286, 48 hours, read-out: MIC (minimum inhibitory concentration)): 128 mg/L; MIC ([11]; ATCC64025, 48 hours, read-out: MIC (minimum inhibitory concentration)): > 128 mg/L; MIC ([12]; ATCC46941, 48 hours, read-out: MIC (minimum inhibitory concentration)): > 128 mg/L; MIC (Candida krusei ATCC 6258; Pichia kudriavzevii, ATCC6258, 48 hours, read-out: MIC (minimum inhibitory concentration)): 16 mg/L; MIC ([13]; ATCC10231, 48 hours, read-out: MIC (minimum inhibitory concentration)): 4 mg/L"
"COc1ccc2c(Cc3ccc(C(C)C)cc3)c3[n+](cc2c1OCCCCCCCl)CCc1cc2c(cc1-3)OCO2.[I-] [Compound No. 22, 13-(4-Isopropylbenzyl)-9-O-(6-chlorohexyl)berberrubine iodide]","2 (Compounds having the inhibitory activity at 2-fold, 4-fold, 8-fold and 16-fold higher concentrations than that of polyoxin D were given the values of 4, 3, 2 and 1, respectively)",5 (A compound having the same inhibitory activity as that of polyoxin D at the same concentration was given the value 5),1 mg/L,2 mg/L,0.5 mg/L,0.5 mg/L,2 mg/L,2 mg/L,2 mg/L,4 mg/L,8 mg/L,8 mg/L,1 mg/L,0.5 mg/L,–
COc1ccc2cc3[n+](cc2c1O)CCc1cc2c(cc1-3)OCO2 [berberrubine],–,–,–,–,–,–,–,–,–,–,–,–,–,–,"MIC (human pathogenic fungi; berberrubine, the starting material, strains not specified): 256 to 512 mg/L"
